Assay results reported in US9951115B2, “CGRP agonist peptides” (priority 2013, dated 2018).
Bridge positions count the residues as written; N and C are the ends. Peptide text beside a SMILES is read from it.

Columns and labels:
[1] = target: T1, CALCRL:RAMP3 (adrenomedullin 2 (AM2) receptor) (Homo sapiens, UniProt O60896+Q16602); test: CALCRL:RAMP3 CRE-bla Freestyle 293F agonist screen (adrenomedullin 2 receptor); assay type: cell-based; conditions: CALCRL:RAMP3-CRE-bla Freestyle 293F cells, 5 hours incubation, FIG. 2
T1 construct: host or cells: Freestyle 293F (CRE-bla reporter line)
T1 sequence (Q16602 23-461): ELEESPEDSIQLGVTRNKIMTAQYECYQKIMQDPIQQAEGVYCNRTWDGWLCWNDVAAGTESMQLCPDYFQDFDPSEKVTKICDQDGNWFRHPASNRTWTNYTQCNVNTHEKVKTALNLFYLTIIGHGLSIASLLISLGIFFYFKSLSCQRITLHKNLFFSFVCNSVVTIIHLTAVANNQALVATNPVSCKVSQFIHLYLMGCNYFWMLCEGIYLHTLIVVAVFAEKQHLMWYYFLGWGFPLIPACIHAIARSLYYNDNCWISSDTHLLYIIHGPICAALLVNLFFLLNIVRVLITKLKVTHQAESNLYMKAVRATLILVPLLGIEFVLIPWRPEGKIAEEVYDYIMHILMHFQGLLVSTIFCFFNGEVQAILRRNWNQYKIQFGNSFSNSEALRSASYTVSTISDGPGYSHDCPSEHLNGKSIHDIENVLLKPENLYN
T1 sequence (O60896 24-148): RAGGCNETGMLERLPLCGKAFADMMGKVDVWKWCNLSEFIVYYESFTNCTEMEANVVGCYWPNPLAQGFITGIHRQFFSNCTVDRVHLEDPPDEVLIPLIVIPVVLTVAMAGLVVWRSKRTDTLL
Description: Cell-based GPCR Profiling Assays. A representative CGRP agonist peptide according to the present invention, ACX017 (SEQ ID NO:1), was profiled against G-Protein Coupled Receptors (GPCRs) in cell-based assays to determine its agonist activity and dose response. Assays were performed using the SelectScreen® Cell-based GPCR Profiling Services by Life Technologies, Carlsbad, Calif.
CALCRL:RAMP3—CRE-bla Freestyle 293F—Agonist Screen (Adrenomedullin 2 Receptor)
CALCRL:RAMP3-CRE-bla Freestyle 293F cells were thawed and resuspended in Assay Media (DMEM, 10% dialyzed FBS, 25 mM HEPES pH 7.3, 0.1 mM NEAA, 100 U/mL/100 μg/mL Pen/Strep) to a concentration of 312,500 cells/mL. 32 μL of cell suspension (10,000 cells) was added to each well of a 384-well Poly-D-Lysine assay plate. Cells in Assay Media were incubated for 16-24 hours in the plate at 37° C./5% CO2 in a humidified incubator. 4 μL of a 10× serial dilution of Adrenomedullin or ACX017 were added to appropriate wells of the plate. […] The plate was read on a fluorescence plate reader. […]
Cell-free Control. […] It was used to determine the background fluorescence for both coumarin and fluorescein wavelengths. […]
Known Agonist. A known agonist titration was run on every plate for each cell-line to ensure the cell line was activated within an expected EC50/IC50 range as previously determined.

[2] = tested on: Sprague Dawley rats, food intake; test: Four-day food intake study; assay type: in vivo, rat; conditions: male Sprague Dawley rats on 60% kcal fat diet, 150 μg/kg intraperitoneal once daily for four days, food intake at 2, 4, 6, 8 hours post dose
Description: Food Intake Study. The effect of a CGRP agonist, in accordance with the present invention, on food intake over time both within and across several days of treatment was evaluated. Study was performed by Explora BioLabs, San Diego, Calif. and animals treated in accordance with its IACUC standards.
On Day 0, 12 animals were randomized into two groups, Test and Control, to obtain similar body weight averages between groups. Animals were dosed via a single intraperitoneal injection, with either ACX017 (SEQ. ID NO:1) (Test group) or vehicle (Control group) each day, for four days. On each day, dosing was performed in the hour prior to the end of the light phase. ACX017 was dosed at 150 μg/kg in a 10% DMSO aqueous solution. Both ACX017 and vehicle were delivered as 1 mL/kg doses.
Food consumption was measured pre-dose and at 2, 4, 6 and 8 hours post dose. Food intake was measured by weighing food hoppers on Days 1, 2, 3 and four in the hour before end of the light phase and at 2, 4, 6 and 8 hours post dosing.
Average food intake for each of the Test and Control groups at each time point post dosing was determined. Cumulative food intake for each group over the entire test period (8 hours) is provided in graph form in FIGS. 1-4 for each of Days 1-4, respectively.

In the case of `CC(C)C[C@H](NC(=O)[C@H](CCCNC(=N)N)NC(=O)CNC(=O)[C@H](CC(C)C)NC(=O)[C@@H](NC(=O)[C@@H]1CSSC[C@H](NC(=O)[C@H](C)N)C(=O)N[C@@H](CC(=O)O)C(=O)N[C@@H]([C@@H](C)O)C(=O)N[C@@H](C)C(=O)N[C@@H]([C@@H](C)O)C(=O)N1)C(C)C)C(=O)N[C@@H](CO)C(=O)N[C@@H](CCC(N)=O)C(=O)N[C@@H](CCC(=O)O)C(=O)N[C@@H](CC(C)C)C(=O)N[C@@H](Cc1c[nH]cn1)C(=O)N[C@@H](CCCNC(=N)N)C(=O)N[C@@H](CC(C)C)C(=O)N[C@@H](CCC(N)=O)C(=O)N[C@H](C(=O)N[C@@H](Cc1ccc(O)cc1)C(=O)N1CCC[C@H]1C(=O)N[C@@H](CCCNC(=N)N)C(=O)N[C@H](C(=O)N[C@@H](CC(N)=O)C(=O)N[C@H](C(=O)NCC(=O)N[C@@H](CO)C(=O)N[C@@H](CCCCN)C(=O)N[C@@H](C)C(=O)N[C@@H](Cc1ccccc1)C(N)=O)C(C)C)[C@@H](C)O)[C@@H](C)O` [ACX017] (H-ACDTATCVLGRLSQELHRLQTYPRTNVGSKAF-NH2; disulfide 2-7), the “activation of the adrenomedullin 2 (AM2) receptor” value [1] is reported as “did not activate the adrenomedullin 2 (AM2) receptor” and the “appetite suppression (reduced food intake compared to Control group)” value [2] is reported as “suppressed appetite in the Test group for at least about four hours after dosing”.
